Assay results reported in patent publication US12310945B2, “Cyclohexylglycine derivatives as selective cytotoxic agents” (Merck Sharp & Dohme LLC, priority 2022, dated 2025).

Test system: PBMCs infected with VSV-G pseudotyped HIV virus stock (VSV-G/pNLG1-P2A-AEnv)
Experiment: cells
Type: cell-based
Settings: Human immunodeficiency virus 1, PBMC, read-out: TACK EC50

| Structure (SMILES) | EC50 |
| --- | --- |
| N[C@H](C(=O)N1Cc2ccccc2C1)[C@H]1CC[C@@H](O)CC1 [Example 2] | 6420 nM |
| N[C@H](C(=O)N1Cc2ccccc2C1)[C@H]1CC[C@H](N2CCCC2)CC1 [Example 1, (2S)-2-amino-1-(1,3-dihydroisoindol-2-yl)-2-[(1R,4S)-4-(pyrrolidin-1-yl)cyclohexyl]ethanone] | 211 nM |
| N[C@H](C(=O)N1Cc2ccccc2C1)C1CCCCC1 [Example 3] | 1410 nM |
| C#CCO[C@H]1CCN(C2CCC([C@H](N)C(=O)N3Cc4ccccc4C3)CC2)C1 (stereo partly drawn) [Example 6] | 230 nM |
| C#CCOCCO[C@H]1CCN(C2CCC([C@H](N)C(=O)N3Cc4ccccc4C3)CC2)C1 (stereo partly drawn) [Example 5] | 533 nM |
| N#C[C@@H]1C[C@H](F)CN1C(=O)[C@@H](N)C1CCCCC1 [Example 4] | 314 nM |
